One data set deals with L1210 leukemia cells. The data set is described as follows: In vitro antitumor activity to L1210 leukemia cells (MTT). The data set is classed as cell-based. As to conditions: for IC50: Mus musculus. Here is the method:
The cells were cultured in an incubator at 37° C., 5% CO2 and saturated humidity for 48 h. Then 5 mg/mL MTT (20 μL/well) was added and cultured at the same conditions for 4 h, DMSO (150 μL/well) was added, and the (570/630 nm) absorbance (A values) was measured by using micro-plate reader.

For another data set, the system named is L1210 cells. The data set is classed as cell-based. As to conditions: 10 μM, after 12 h. Here is the method:
The cells were cultured in an incubator at 37° C., 5% CO2 and saturated humidity. The culture medium was removed, the cells were washed with PBS twice, fixed at −20° C. overnight. Then the cells were centrifuged again, washed with PBS to remove ethanol, cultured with RNase A (200 μg/mL, Sigma) at 37° C. for 1 h, stained with PI (50 μg/mL, Sigma) in dark for 30 min, and detected by using a flow cytometer.

The subject of another data set is Bacillus subtilis. The data set is described as follows: Inhibition zone test (holing method). It counts as cell-based. Particulars: 37° C., 24 h; compounds 0.05 mg/well, streptomycin 0.15 mg/well. As to the method: (§1) After being cultured at 37° C. for 24 h, the sizes of inhibition zones were measured.
The test system of the next data set is Candida albicans. In words: Inhibition zone test (holing method). Particulars: 37° C., 24 h; compounds 0.05 mg/well, nysfungin 0.10 mg/well. The data set is classed as cell-based. As to the method: as §1
The next data set deals with E. coli. In words: Inhibition zone test (holing method). The data set is classed as cell-based. As to conditions: 37° C., 24 h; compounds 0.05 mg/well, gentamicin 0.10 mg/well. Here is the method: as §1
For data set [1], the system named is Pseudomonas aeruginosa. The data set is described as follows: Inhibition zone test (holing method). The data set is classed as cell-based. As to conditions: 37° C., 24 h; compounds 0.05 mg/well, gentamicin 0.10 mg/well. Here is the method:
as §1

Data set [2] has as its system Staphylococcus aureus MRSA 5676. In words: Inhibition zone test (holing method). The data set is classed as cell-based. Particulars: 37° C., 24 h; compounds 0.05 mg/well, vancomycin 0.15 mg/well. Here is the method:
as §1

Data set [3] relates to Staphylococcus aureus MRSA 5677. In words: Inhibition zone test (holing method). It counts as cell-based. As to conditions: 37° C., 24 h; compounds 0.05 mg/well, vancomycin 0.15 mg/well. Here is the method:
as §1

Data set [4] deals with Staphylococcus aureus wild type. The data set is described as follows: Inhibition zone test (holing method). The data set is classed as cell-based. As to conditions: 37° C., 24 h; compounds 0.05 mg/well, streptomycin 0.15 mg/well. As to the method: as §1
For data set [5] the test system is unchanged. The data set is described as follows: Test of minimal inhibitory concentration (MIC). It counts as cell-based. Particulars: two-fold dilution, 37° C., 24 h, absorbance 595 nm.
Another data set concerns MRSA5676. In words: Test of minimal inhibitory concentration (MIC). It counts as cell-based, Staphylococcus aureus. Particulars: two-fold dilution, 37° C., 24 h, absorbance 595 nm.
The next data set has as its system MRSA5677. The data set is described as follows: Test of minimal inhibitory concentration (MIC). It counts as cell-based, Staphylococcus aureus. Particulars: two-fold dilution, 37° C., 24 h, absorbance 595 nm.
Data set [6] relates to Pseudomonas aeruginosa. In words: Measurement of growth curve of Pseudomonas aeruginosa. The data set is classed as cell-based. Particulars: 1 mM (FIG. 2). Here is the method:
Pseudomonas aeruginosa was inoculated in LB medium, and cultured at a constant temperature of 37° C. in a shaker overnight.

Data set [7] relates to secretion of pyocyanin by Pseudomonas aeruginosa. In words: Measurement of pyocyanin. It counts as cell-based. Particulars: 18 h culture, A520; Andro, AL-1 1 mM; Chuanhuning, Yanhuning, Lianbizhi 10 mM (FIG. 3). As to the method: Pseudomonas aeruginosa was inoculated in LB medium, then cultured at a constant temperature of 37° C. in a shaker overnight. […] The supernatant was taken and extracted in turn with chloroform and 0.2 N HCl, and A520 values were measured (Zielinshi et al., Biol. Chem. 1991, 266, 9754-9763; May et al., Clin. Microbiology Rev. 1991, 4, 191-206).

The test system of data set [8] is extracellular protease of Pseudomonas aeruginosa. The data set is described as follows: Measurement of extracellular protease. It counts as cell-based. Particulars: azo-casein, A440; Andro, AL-1 1 mM; Chuanhuning, Yanhuning, Lianbizhi 10 mM (FIG. 4). As to the method: Pseudomonas aeruginosa was inoculated in LB liquid, and cultured at a constant temperature of 37° C. in a shaker overnight. […] After the bacterial liquids were cultured simultaneously at 37° C. for 6 h and centrifuged, supernatant 100 μL was taken, azo-casein 5 mg was added, […] and CaCl2 10 mM were added, and then they were shaken for reaction at 37° C. for 6 h, and the reaction was terminated by adding EDTA-Na. The A440 values of the supernatants were measured (Zielinshi et al., Biol. Chem. 1991, 266, 9754-9763; May et al., Clin. Microbiology Rev. 1991, 4, 191-206).

The test system of data set [9] is Pseudomonas aeruginosa. In words: Atomic force microscope (AFM) experiment. The data set is classed as cell-based. Particulars: 1 mM, 15 h contact (FIG. 5). Here is the method:
Pseudomonas aeruginosa was inoculated in LB liquid, shaken and cultured at a constant temperature of 37° C. overnight, and the bacterial liquid was centrifuged, washed with sterile physiological saline twice, and mixed with physiological saline to form a bacterial suspension having a turbidity of 0.5 McFarland Standard (bacterial number was about 5×10^8-9 CFU/mL). The bacterial suspension was diluted with physiological saline 50-times. […] After contacting with medicines for 15 h, 1 mL culture solution was added in a sterile centrifuge tube and centrifuged at 10,000×g for 5 min. The supernatant liquid was discarded, and the obtained bacterial sample was washed with double distilled water twice, and suspended in double distilled water. A small volume of Pseudomonas aeruginosa suspension was taken and dropped on a cover slip carefully. After water was dried under atmospheric condition, the bacteria were observed by CP-Research type atom force microscope (U.S.A., Thermomicroscopes Co.) ([…] et al., Antimicro. Chemother. 1994, 34, 679-685; […] et al., Antimicro. Agents Chemother. 2000, 44, 682-687; Nickel et al., Urology 1986, 135, 586-588).

Data set [10] deals with BF of Pseudomonas aeruginosa. In words: Scanning electron microscopy (SEM) experiment, biofilm (BF) formation. The data set is classed as cell-based. Particulars: 1 mM; early BF 3rd day, mature BF 7th day (FIG. 6, 7).
Protocol: Pseudomonas aeruginosa was inoculated in LB liquid, and cultured at a constant temperature of 37° C. in a shaker overnight, and the bacterial liquid was centrifuged, washed with sterile physiological saline twice, and mixed with physiological saline to form a bacterial suspension having a turbidity of 0.5 McFarland Standard (bacterial number was about 5×10^8-9 CFU/mL). The bacterial suspension was diluted with physiological saline 50-times. A biofilm (BF) carrier was placed in a tube containing 2 mL of the bacterial liquid, and the culturing was conducted at 37° C. […] Medium was replaced every other two days. The formation of BF was observed by using Quanta 400 thermal field emission scanning electron microscope (FEI Company). The carrier adhered with BF was washed with sterile physiological saline to remove floating bacteria, fixed with 2.5% glutaral, immersed in pH 7.4 PBS for three times, dewatered in turn with 50%, 70%, 80% and 90% ethanol once, then dewatered with 100% ethanol twice and with tert-butanol twice, 5 min for each time, and lyophilized for 5 h. The surface of carrier was plated with gold under vacuum.
The test system of data set [11] is suspended Pseudomonas aeruginosa. In words: Experiment of combination with antibiotics. As to conditions: Pseudomonas aeruginosa cultured 15 h, OD600; ciprofloxacin 0.017 μg/mL, erythromycin 3.75 μg/mL, Andro 350 μg/mL, AL-1 538 μg/mL (1 μmol/mL). It counts as cell-based.
Data set [12] deals with rats with STZ-induced diabetes mellitus. In words: Therapeutical effects on STZ-induced diabetes mellitus in rats.
Protocol: 30 Female SD rats, 180-220 g, fasted for 16 h, were subjected to intraperitoneal injection of 60 mg/kg of STZ (purchased from Sigma Company). After 72 h, blood samples were collected from the rats by cutting their tails after fasting 16 h, and blood glucose values were measured by using a blood glucose analyzer (Johnson & Johnson Company). […] Animals were weighed, orbital bleeded, and the sera were separated. According to the instructions of kit (Zhejiang Dongou Biotechnology Co., Ltd.), the contents of triglyceride and total cholesterol were measured. […] The rats of vehicle group were treated with an equivalent volume of solvent (20% DMSO in H2O). After being fasted for 16 h, the rats were weighed, and bleeded for the measurement of blood glucose, triglyceride and total cholesterol. The obtained data were processed by using one-factor analysis of variance (One-way ANOVA) followed by Student's t-test.
A further data set relates to macrophages. Particulars: read-out: IC50, inhibition of cell division (C5α induced, macrophages); cited from earlier work.
The next data set concerns MCF-7 breast cancer. As to conditions: 100 mg/kg, mice, hollow fiber system; cited from earlier work.
In the next data set the test system is B16F0 melanoma. As to conditions: orally 200 mg/kg, twice per day; cited from earlier work.
A further data set has as its system HT-29 human colon cancer. As to conditions: orally 200 mg/kg, twice per day; cited from earlier work.

Consider 2 compounds from patent US8367720B2 (Panorama Research Inc., priority 2007, dated 2013).

Structures are written as SMILES. Read-outs that look alike come from different tables or passages of the source.

As for `C=C1CCC2[C@](C)(CO)[C@H](O)CC[C@@]2(C)[C@@H]1C/C=C1/C(=O)OCC1OC(=O)CCCCC1CCSS1` (stereo partly drawn) [AL-1, 14-lipoyl-3,19-dihydroxy-andrographolide], in the data set with L1210 leukemia cells (L1210 cells), the “cytotoxicity relative to andrographolide” value came to 3 times. Besides, the IC50 (commonly the point on the concentration scale where inhibition reaches its midpoint) in the data set with L1210 leukemia cells (L1210 cells, 48 h, MTT, read-out: IC50) came out at 8.04 ± 1.92 µM. The “effect on cell cycle / apoptosis of L1210 cells” value in the data set on L1210 cells is “arrest L1210 cells at G1 prophase”. In the data set on Bacillus subtilis, the “Inhibition zone diameter, Bacillus Subtilis” value was “^b (incompetence (inhibition zone diameter <4 mm))”. The “Inhibition zone diameter, Candida albicans” value in the data set on Candida albicans is listed as “^b (incompetence (inhibition zone diameter <4 mm))”. For the same compound, in the data set on E. coli, the “Inhibition zone diameter, E. coli” value is on record as “^b (incompetence (inhibition zone diameter <4 mm))”. For the same compound, in the data set on Pseudomonas aeruginosa [1], the “Inhibition zone diameter, Pseudomonas aeruginosa” value is reported as “^b (incompetence (inhibition zone diameter <4 mm))”. In data set [2], the “Inhibition zone diameter, Staphylococcus aureus MRSA 5676” value was determined as 6.9 ± 0.80 mm. Moreover, the “Inhibition zone diameter, Staphylococcus aureus MRSA 5677” value in data set [3] was found to be 4.1 ± 0.77 mm. Moreover, the “Inhibition zone diameter, Staphylococcus aureus Wild type” value in [4] is 4.9 ± 0.81 mm. The “MIC, Wild type” value in data set [5] came to 1000. In addition, the “MIC, MRSA5676” value in the data set with MRSA5676 is reported as 1000. In the data set with MRSA5677, the “MIC, MRSA5677” value turned out to be 1000. The “inhibition of the growth of Pseudomonas aeruginosa (growth curve, A600)” value in the data set on Pseudomonas aeruginosa [6] is reported as “significantly inhibited the growth of bacteria”. In addition, the “inhibition of the secretion of pyocyanin” value in data set [7] was “AL-1>Andro>ANO”. Moreover, in data set [8], the “inhibition of the production/activity of extracellular protease” value is listed as “AL-1>ANO>Andro”. Further, the “growth morphology of Pseudomonas aeruginosa under AFM” value with Pseudomonas aeruginosa [9] is listed as “did not form a confertim bacterial colony”. The “formation of early and mature BF of Pseudomonas aeruginosa under SEM” value in [10] was “able to destroy the BF of Pseudomonas aeruginosa”. In addition, the “Survival Rate” value in [11] worked out at 84%. Further, in data set [12] (AL-1 160 mg/kg, 7 days), the “reduction of blood glucose level” value is “about 66%”. In data set [12] (Day 0, before treatment), this compound showed a Blood glucose of 19.53 ± 1.90 mmol/L, a Body weight of 214.33 ± 9.81 g, a Total cholesterol of 3.39 ± 0.59 mmol/L and a Total triglyceride of 6.28 ± 0.78 mmol/L.
In the case of `C=C1CCC2[C@@](C)(CC[C@@H](O)[C@@]2(C)CO)C1C/C=C1/C(=O)OCC1O` (stereo partly drawn) [Andro, Andrographolide], the IC50 is 28.7 ± 6.19 µM in the data set with L1210 leukemia cells (L1210, 48 h) and 5.6 ± 0.7 µM in the data set with macrophages. For the same compound, the “Inhibition zone diameter, Bacillus Subtilis” value in the data set with Bacillus subtilis is listed as “^b (incompetence (inhibition zone diameter <4 mm))”. Besides, the “Inhibition zone diameter, Candida albicans” value in the data set with Candida albicans is “^b (incompetence (inhibition zone diameter <4 mm))”. For the same compound, in the data set with E. coli, the “Inhibition zone diameter, E. coli” value is listed as “^b (incompetence (inhibition zone diameter <4 mm))”. The “Inhibition zone diameter, Pseudomonas aeruginosa” value in the data set on Pseudomonas aeruginosa [1] is “^b (incompetence (inhibition zone diameter <4 mm))”. The “Inhibition zone diameter, Staphylococcus aureus MRSA 5676” value in [2] was “^b (incompetence (inhibition zone diameter <4 mm))”. For the same compound, the “Inhibition zone diameter, Staphylococcus aureus MRSA 5677” value in data set [3] is on record as “^b (incompetence (inhibition zone diameter <4 mm))”. In data set [4], the “Inhibition zone diameter, Staphylococcus aureus Wild type” value is on record as “^b (incompetence (inhibition zone diameter <4 mm))”. Also, the “inhibition of the growth of Pseudomonas aeruginosa (growth curve, A600)” value with Pseudomonas aeruginosa [6] is on record as “weak antibacterial activity”. In data set [7], the “inhibition of the secretion of pyocyanin” value is “AL-1>Andro>ANO”. Besides, in data set [8], the “inhibition of the production/activity of extracellular protease” value is given as “AL-1>ANO>Andro”. In the data set with MCF-7 breast cancer, the inhibition of growth entry is “about 50%”. Also, the “inhibition of growth of melanoma” value in the data set on B16F0 melanoma is 39%. Moreover, the “inhibition of growth of colon cancer” value in the data set with HT-29 human colon cancer is reported as 52%.
